Literature values, collected in patent US20070281996A1, “Creatine prodrugs, compositions and uses thereof” (XenoPort, Inc., priority 2006, published 2007).

How the values were obtained:
[1] = healthy volunteers, oral creatine administration (Dechent et al.)
[2] = following oral creatine supplementation

In the case of `CN(CC(=O)O)C(=N)N` [creatine, Creatine], the “increase of cerebral creatine phosphate” value [1] is given as “about 10%” and the “duration of increase in tissue creatine phosphate levels” value [2] is given as > 14 days.
